According to a melting point compilation (Tetko et al.; mined from patent text by program, amines drawn as free bases though some values may be those of a salt):

Structure (SMILES) | melting point
COC(=O)CC(CSC(C)=O)C(=O)O (stereo unspecified) | 120 to 121 °C
COc1ccc2c(c1)C(=O)c1nc3ccccc3c(=O)n1-2 | 268 to 269 °C
CS(=O)(=O)NC(=O)c1ccc(OCCn2ccnc2)cc1 | 198 to 199 °C
Clc1ccc2cccc(-c3cccc4ccccc34)c2n1 | 133 to 135 °C
CC(C)(CO)NC(=O)c1cccnc1 | 91 to 93 °C
Cc1c(Sc2ccc(Cl)cc2)nn(-c2ccc(O)cc2)c(=O)c1C#N | 261 to 263 °C
NCC1c2ccccc2C=Cc2ccccc21 | 95 to 96.5 °C
Fc1ccc(N2CCN(Cc3n[nH]c4ccccc34)CC2)cc1 | 191 to 192 °C
Cc1ccc(S(=O)(=O)c2cc3c(c(S(=O)(=O)NCCc4ccccc4F)c2)CCCC3)cc1 | 55 to 60 °C
CCOC(=O)c1cn(-c2ncc(F)c(NC(C)(C)C)n2)c2c(Cl)c(F)c(F)cc2c1=O | 201 to 205 °C
CCC12CCC3c4ccc(OC)cc4CCC3C1CCC2OCCO (stereo unspecified) | 131 to 132 °C
CCOC(=O)Cc1ccc(NC(=O)C(COS(C)(=O)=O)NS(=O)(=O)c2ccc(I)cc2)cc1 (racemic) | 160 to 162 °C
O=C(O)c1ccc2c(c1)ncn2-c1cc(Cl)ccc1O | 308 to 310 °C
O=C(OCc1ccccc1)N1CCC(Nc2nc3cccnc3n2Cc2ccc(F)cc2)CC1 | 130 °C
CCOC(=O)C(C#N)(Cc1cc(OC)c(OC)c(OC)c1)C(OCC)OCC (stereo unspecified) | 95 to 97 °C
CN(C(=O)OC(C)(C)C)[C@H](Cc1ccc2ccccc2c1)C(=O)N1CCc2ccccc2C1 | 121 to 126 °C
Cc1nc(-c2ccc(NCC(=O)O)cc2)no1 | 178 to 181 °C
COc1cccc(S(=O)c2cccc(N)c2C#N)c1 (stereo unspecified) | 110 to 114 °C
CS(=O)(=O)c1ccc(-c2sc(COc3cc(Cl)cc(Cl)c3)nc2-c2ccc(F)cc2)cc1 | 171 to 173 °C
O=C(CCCCl)Nc1ccccc1 | 64 to 66 °C
COC(=O)c1ccc(CNC(=O)C2Cc3ccccc3N2S(=O)(=O)c2ccc(-c3ccc(F)cc3)cc2)cc1 (stereo unspecified) | 66 to 73 °C
Cc1noc([C@@H](Cc2ccccc2)NC(=O)[C@@H](Cc2ccc3ccccc3c2)NC(=O)c2cccc(CNC(=O)OC(C)(C)C)c2)n1 | 176 to 178 °C
COc1ccc(C2CCc3ccccc3O2)cc1 (stereo unspecified) | 82 to 83 °C
CCOC(=O)c1c2n(c3ccc(Cl)c(Cl)c3c1=O)CCS2 | 266 to 267 °C
[N-]=[N+]=NCC1CN(c2ccc(SC(c3ccccc3)(c3ccccc3)c3ccccc3)c(F)c2)C(=O)O1 (stereo unspecified) | 77 to 79 °C
O=CN1CCC(=C2c3ccc(Cl)cc3CCc3cccnc32)CC1 | 147 to 149 °C

Structure (SMILES) | melting point
COc1cc2c(cc1CCCCN(C)C)[nH]c1cc(-c3ccccc3Cl)c3c(c12)C(=O)NC3=O | 162 to 164 °C
COc1ccc(CN2CCC(=C3c4ccc(Cl)cc4CCc4cccnc43)CC2)cn1 | 60.2 to 64.1 °C
CCCCCCC1CC(=O)C2=C(C1)NC(=O)CC2 (stereo unspecified) | 142 to 144 °C
CCCCCCSc1ccc(SCCCCCC)c(C(=O)O)n1 | 40 to 42 °C
CNC(=O)NC(CCSC)C(N)=O (racemic) | 156 to 157 °C
CC(Oc1cc(F)cc(F)c1)C1=NCCN1 (stereo unspecified) | 134 °C
N=C(Nc1ccc(C(F)(F)F)cc1)c1ccc(Cl)cc1Cl | 108 to 109 °C
COc1cc2c(cc1[N+](=O)[O-])NC(=O)CN(CC1CC1)C2 | 178 °C
CC(=O)c1ccc(=O)[nH]c1C | 196 to 198 °C
OC1CC=C(c2ccc(F)cc2)CC1 (stereo unspecified) | 73 to 74.5 °C
Cc1c(C(=O)O)oc2cc(-c3ccc(Cn4c(C)nc5ccccc54)cc3)ccc12 | 295 to 297 °C
COC(=O)[C@@H]1CN(C(=O)OCc2ccccc2)C[C@H]1c1ccc(OC)c(OC2CCCC2)c1 (relative stereo) | 85 °C
CCOC(=O)c1[nH]cc2c1NC1=C(C(=O)CCC1)C2c1ccc(Sc2nc3cccnc3[nH]2)o1 (stereo unspecified) | 190 to 202 °C
O=C(O)c1ccccc1I(=O)=O | 226 to 234 °C
COC(=O)c1ccc(-n2cccn2)cc1 | 107 to 109 °C
O=C(O)COCN(c1ccc(CN2CCN(Cc3ccccc3)C(=O)C2=O)cc1)c1ncccn1 | 85 to 90 °C
Cc1c(NC(=O)CC(C)(C)C)cc2c(c1C)OC(C)(C)C2c1ccccc1OC(F)(F)F (stereo unspecified) | 155 to 156 °C
CC1(C)Oc2ccsc2C(NC(=O)c2ccc(C(F)(F)F)cc2)C1O (stereo unspecified) | 162 to 163 °C
O=c1[nH]c(=S)[nH]cc1Oc1cccnc1 | 227 to 230 °C
O=C(NC[C@H]1CC[C@H](C(=O)O)CC1)OCc1ccccc1 | 114 to 116 °C
CC(C)(C)c1cc(CCc2ccccc2NC(=O)N2CCCCC2CCOCc2ccccc2)cc(C(C)(C)C)c1O (stereo unspecified) | 113 to 114 °C
N#Cc1cc(Cl)c(N)c(I)c1 | 121 to 123 °C
O=C(O)C1Cc2ccccc2N1c1ncccn1 (stereo unspecified) | 249 to 250 °C
CCCCC(CC)COc1ccc2c(c1)C(=O)c1ccc(OCC(CC)CCCC)cc1C2=O (stereo unspecified) | 49 to 51 °C
CSc1cc2n(c(=O)n1)C(C)N=C2 (stereo unspecified) | 221 to 222 °C
O=c1ccc2ccc3ccc(Br)cc3c(=O)c2[nH]1 | 268 to 269 °C

Structure (SMILES) | melting point
Oc1cc2c(cc1CNc1ccccc1)OCC2 | 130 to 131 °C
CCCCCCCCCCCCOP(=O)(CC(=O)Nc1c(C(C)C)cccc1C(C)C)c1ccccc1 (stereo unspecified) | 66 to 68 °C
CC(C)OC(=O)Nc1ccc(C2=NNC(=O)CC2C)cc1 (stereo unspecified) | 236 to 237 °C
COc1ccc2cc([C@H](C)C(=O)OCC(C)(O[N+](=O)[O-])O[N+](=O)[O-])ccc2c1 | 67 to 68 °C
CCCCCCCCCCCCCCCCCCOCC(O)Cn1cc(F)c(N)nc1=O (stereo unspecified) | 118 to 119 °C
COCCOc1cc2ncc(C#N)c(O)c2cc1OCc1ccccc1 | > 250 °C
COc1cccc(Oc2ccc(NC(C)=O)cc2)c1 | 103 to 105 °C
Clc1ccc(NN=Cc2cccs2)cc1 | 137 °C
CC(=O)Nc1ccc(NC(=O)c2ccc(O)cc2)cc1 | 160 °C
O=C(O)CNC(=O)c1ccc(C(=O)NS(=O)(=O)c2ccccc2)cn1 | 190 to 191 °C
COCCc1nc2c(N)nc3c(c2n1CCCNC(=O)c1ccccc1)CCCC3 | 168 to 170 °C
CC(C)(C)NC(=O)C#CBr | 113 °C
CC(=O)N[C@@H](CSC(=O)C(C)C)C(=O)OC(C)C | 59 to 59.5 °C
CCOC(=O)C(CC)n1c(NC(=O)c2cccs2)nc2cc(C(=O)N(C)C3CCCCC3)ccc21 (stereo unspecified) | 82 to 84 °C
COc1cc(Nc2c(C#N)cnc3cc4cc(OCCN5CCC(O)CC5)c(OC)cc4cc23)c(Cl)cc1C | 210 to 215 °C
CC(=O)N1CCc2[nH]cc3c(=O)n(-c4ccc(Cl)cc4)nc-3c2C1 | > 350 °C
O=C(NCCc1ccc(O)cc1)c1ccc2n1Cc1ccccc1N(C(=O)COc1ccc(Cl)cc1)C2 | 206 to 207 °C
OC1(C#CC2(F)C=CC(c3ccccc3)=CC2)CN2CCC1CC2 (stereo unspecified) | 232 to 233 °C
CN1CCc2c(Cl)c(O)c(O)c(Sc3ccccc3)c2CC1 | 173 to 174 °C
CC(=O)Nc1ccc(OCCN(CC(=O)c2ccc(OCc3ccccc3)c(OCc3ccccc3)c2)Cc2ccccc2)cc1 | 104 to 106 °C
N#CCCNC(=O)C1=C(C(=O)Nc2ccc(Cl)cc2F)CCCC1 | 160 to 161 °C
CCCc1c(OCCCCCc2c(Cl)ccc(OC)c2OC)ccc(C(=O)O)c1O | 140 to 142 °C
c1ccc2[nH]c(C34CC5CC(CC(C5)C3)C4)cc2c1 | 48 °C
O=C(NC1=NN(c2ccc(C(=O)C(F)(F)F)cc2)CC1)C(F)(F)F | 228 to 230 °C
CCCC1=C(C(=O)OCC)C(c2cccc3nsnc23)c2c[nH]nc2N1 (stereo unspecified) | 180 °C
Cc1cc2[nH]c(CC(C)(C)N3C(=O)c4ccccc4C3=O)nn2n1 | 197 to 199 °C

Structure (SMILES) | melting point
CC(=O)c1cc(S(=O)(=O)N(C)C)c(Cl)cc1Cl | 98 to 100 °C
Cc1sc(N)c(C(=O)c2ccc(Cl)cc2)c1CN1CCN(c2ccc(F)cc2)CC1 | 70 to 72 °C
COc1ccc(S(=O)(=O)N2C(=O)C(c3ccccc3OC)(N3Cc4cc(OC)c(OC)cc4C[C@H]3C(=O)N(C)C)c3cc(Cl)ccc32)c(OC)c1 (stereo partly specified) | 157 °C
N#CC(CC(=O)O)c1ccc(Cl)c(Cl)c1 (stereo unspecified) | 104 °C
CNC(=O)ON=C1SCC(=O)N1C(C)C | 94 to 96 °C
CC(C)(C)c1ncc(O)cn1 | 132 °C
Cc1ccc(S(N)(=O)=O)cn1 | 151 to 155 °C
CCCCn1c(=O)c(NC(=O)Nc2c(C(C)C)cc(CO)cc2C(C)C)c(-c2cccc(OC)c2)c2cccnc21 | 122 to 123 °C
CC(C)(C)c1cc(CN2CCN(c3ccc(N)cc3)CC2)cc(C(C)(C)C)c1O | 152 to 154 °C
CSCc1cc(N)ccc1N1C(=O)c2ccc(Cl)cc2C1=O | 134 to 137 °C
COc1ccc(N(CCCC(=O)O)C(=O)c2ccc(Cl)cc2)cc1-c1ccccc1 | 114 to 116 °C
O=C(NCC12CC3CC(CC(C3)C1)C2)c1cc(-c2ccccc2C(=O)O)ncc1Cl | 134 to 138 °C
CCOC(=O)C(C)(C)Oc1ccc(CCNC(=O)CCc2cc(C(C)(C)C)c(O)c(C(C)(C)C)c2)cc1 | 168 to 171 °C
Cc1ncccc1Cn1nnnc1-c1ccc(Cl)c(Cl)c1 | 176 to 178 °C
Cc1[nH]cnc1CSCCN=CNS(=O)(=O)c1ccccc1 | 48 to 51 °C
O=S(=O)(Nc1ncncc1-c1ccc(Cl)cc1)c1ccc(O)cc1 | 231 to 232 °C
COC(=O)c1cccc(-c2nc(COc3ccc(CON4CC(C=O)=CN4c4ccccc4)cc3OC)c(C)o2)c1 | 164 to 165 °C
O=c1oc(-c2ccccc2)cc(O)c1Sc1cccc(Cl)c1 | 181 to 182 °C
CCn1c(=O)ccc2cnc(Nc3ccc(O)cc3)nc21 | 222 to 224 °C
Cc1nc2ccccc2c(=O)n1CCN1CCC(C(=O)c2ccc(F)cc2)CC1 | 165 °C
CC(C)(C)OC(=O)Cn1c(C(=O)O)cc2cc(NC(=O)OC(C)(C)C)ccc21 | > 300 °C
COCc1nc2c(N)nc3ccccc3c2n1CC(C)(C)O | 174 to 175 °C
COc1cccc(C2(C(C)(C)O)CCN(C)CC2)c1OC | 97 °C
